From US6855730B2, “3-methylidenyl-2-indolinone modulators of protein kinase” (Sugen, Inc., priority 1998, dated 2005)
pIC50: −log10 of the molar value.

Assays:
[1] = molecular target: T1, 3T3 cell line genetically engineered to express human EGF-R (Homo sapiens, UniProt P00533); assay: EGF-induced BrdU incorporation assay; format: cell-based; conditions: read-out: BrdU EGF driven IC50
T1 construct: expressed in transfected cells; host or cells: 3T3
Protocol: The cellular/catalytic assays described herein are performed in an ELISA format. The general procedure is as follows: a compound is introduced to cells expressing the test kinase, either naturally or recombinantly, for a selected period of time after which, if the test kinase is a receptor, a ligand known to activate the receptor is added. The cells are lysed and the lysate is transferred to the wells of an ELISA plate previously coated with a specific antibody recognizing the substrate of the enzymatic phosphorylation reaction. Non-substrate components of the cell lysate are washed away and the amount of phosphorylation on the substrate is detected with an antibody specifically recognizing phosphotyrosine compared with control cells that were not contacted with a test compound. The cellular/biologic assays described herein measure the amount of DNA made in response to activation of a test kinase, which is a general measure of a proliferative response. The general procedure for this assay is as follows: a compound is introduced to cells expressing the test kinase, either naturally or recombinantly, for a selected period of time after which, if the test kinase is a receptor, a ligand known to activate the receptor is added. After incubation at least overnight, a DNA labeling reagent such as Bromodeoxyuridine (BrdU) or 3H-thymidine is added. The amount of labeled DNA is detected with either an anti-BrdU antibody or by measuring radioactivity and is compared to control cells not contacted with a test compound. […]
Protocol • (1) Cells are seeded at 8000 cells/well in 10% CS, 2mM Gin in DMEM, in a 96 well plate. Cells are incubated overnight at 37° C. in 5% CO2. • (2) After 24 hours, the cells are washed with PBS, and then are serum starved in serum free medium (0% CS DMEM with 0.1% BSA) for 24 hours. • (3) On day 3, ligand (EGF, 2 nM, prepared in DMEM with 0.1% BSA) and test compounds are added to the cells simultaneously. The negative control wells receive serum free DMEM with 0.1% BSA only, the positive control cells receive the ligand (EGF) but no test compound. Test compounds are prepared in serum free DMEM with ligand in a 96 well plate, and serially diluted for 7 test concentrations. • (4) After 20 hours of ligand activation, diluted BrdU labeling reagent (1:100 in DMEM, 0.1% BSA) is added and the cells are incubated with BrdU (final concentration=10 μM) for 1.5 hours. • (5) After incubation with labeling reagent, the medium is removed by decanting and tapping the inverted plate on a paper towel. FixDenat solution is added (50 μl/well) and the plates are incubated at room temperature for 45 minutes on a plate shaker. • (6) The FixDenat solution is thoroughly removed by decanting and tapping the inverted plate on a paper towel. Milk is added (5% dehydrated milk in PBS, 200 μl/well) as a blocking solution and the plate is incubated for 30 minutes at room temperature on a plate shaker. • (7) The blocking solution is removed by decanting and the wells are washed once with PBS. Anti-BrdU-POD solution (1:100 dilution in PBS, 1% BSA) is added (100 μ/well) and the plate is incubated for 90 minutes at room temperature on a plate shaker. • (8) The antibody conjugate is thoroughly removed by decanting and rinsing the wells 5 times with PBS, and the plate is dried by inverting and tapping on a paper towel. • (9) TMB substrate solution is added (100 μl/well) and incubated for 20 minutes at room temperature on a plate shaker until color development is sufficient for photometric detection. • (10) The absorbance of the samples are measured at 410 nm (in “dual wavelength” mode with a filter reading at 490 nm, as a reference wavelength) on a Dynatech ELISA plate reader.

[2] = test system: SKOV3 cells; assay: SKOV3 growth assay (2% FBS); format: cell-based; conditions: Homo sapiens, SK-OV-3, read-out: SKOV3 growth (2% FBS) IC50

SMILES | pIC50 [1] | pIC50 [2]
COc1ccc(C=C2C(=O)Nc3ccccc32)cc1-c1cccc(NC(C)=O)c1 [Example 29, N-[2′-Methoxy-5′-(2-oxo-1,2-dihydroindol-3-ylidenemethyl)-biphenyl-3-yl]-acetamide] | 4.82 | 5.10
CC(=O)Nc1ccc2c(c1)NC(=O)/C2=C/c1ccc(OCCN2CCOCC2)c(-c2cccs2)c1 [Example 40, N-{3-[4-(2-Morpholin-4-ylethoxy)-3-thiophen-2-ylbenzylidene]-2-oxo-2,3-dihydro-1H-indol-6-yl}-acetamide] | 4.54 | 4.65
COc1cc(/C=C2/C(=O)Nc3ccccc32)c(-c2cccs2)cc1OC [Example 39, 3-(4,5-Dimethoxy-2-thiophen-2-ylbenzylidene)-1,3-dihydroindol-2-one] | 4.79 | 5.02
COc1ccc(/C=C2/C(=O)Nc3ccccc32)cc1C1CCCCC1 [Example 12, 3-(3-Cyclohexyl-4-methoxybenzylidene)-1,3-dihydroindol-2-one] | 4.51 | 5.00
CC(C)c1cc(/C=C2/C(=O)Nc3ccc(Br)cc32)cc(C(C)C)c1OCCN1CCOCC1 [Example 57, 5-Bromo-3-[3,5-diisopropyl-4-(2-morpholin-4-ylethoxy)benzylidene]-1,3-dihydroindol-2-one] | 4.91 | 5.40
COc1ccc(/C=C2/C(=O)Nc3ccc(F)cc32)cc1C1CCCC1 [Example 11, 3-(3-Cyclopentyl-4-methoxybenzylidene)-5-fluoro-1,3-dihydroindol-2-one] | 4.63 | 4.82
COc1ccc(/C=C2/C(=O)Nc3ccc(CCN4CCOCC4)cc32)cc1-c1ccsc1 [Example 26, 3-(4-Methoxy-3-thiophen-3-ylbenzylidene)-5-(2-morpholin-4-yl-ethyl)-1,3-dihydroindol-2-one] | < 4.30 | 5.27
COc1cc(/C=C2/C(=O)Nc3ccccc32)c(-c2ccc3ccccc3c2)cc1OC [Example 62, 3-(4,5-Dimethoxy-2-naphthalen-2-ylbenzylidene)-1,3-dihydroindol-2-one] | < 4.30 | 5.21
COC(=O)c1ccc2c(c1)/C(=C\c1cc(C(C)C)c(OC)c(C(C)C)c1)C(=O)N2 [Example 6, 3-(3,5-Diisopropyl-4-methoxybenzylidene)-2-oxo-2,3-dihydro-1H-indole-5-carboxylic acid methyl ester] | 4.92 | 4.71
CCOc1cccc(-c2cc(OC)c(OC)cc2/C=C2/C(=O)Nc3ccccc32)c1 [Example 58, 3-(3′-Ethoxy-4,5-dimethoxybiphenyl-2-ylmethylene)-1,3-dihydroindol-2-one] | 4.56 | 4.66

Compounds with a higher pIC50 [1], results first:

pIC50 [1] | pIC50 [2] | SMILES
4.96 | 5.59 | COc1c(C(C)C)cc(/C=C2/C(=O)Nc3cc(NC(C)=O)ccc32)cc1C(C)C [Example 3, N-[3-(3,5-Diisopropyl-4-methoxybenzylidene)-2-oxo-2,3-dihydro-1H-indol-6-yl]-acetamide]
5.10 | 4.89 | COc1c(C)cc(/C=C2/C(=O)Nc3ccc(Cl)cc32)cc1C [Example 21, 5-Chloro-3-(4-methoxy-3,5-dimethylbenzylidene)-1,3-dihydroindol-2-one]
5.13 | 5.21 | COc1ccc2c(c1)/C(=C\c1cc(C(C)C)c(OC)c(C(C)C)c1)C(=O)N2 [Example 17, 3-(3,5-Diisopropyl-4-methoxybenzylidene)-5-methoxy-1,3-dihydroindol-2-one]
5.12 | 5.19 | CC(C)c1cc(/C=C2/C(=O)Nc3ccc(Cl)cc32)cc(C(C)C)c1OCCN1CCOCC1 [Example 24, 5-chloro-3-[3,5-diisopropyl-4-(2-morpholin-4-ylethoxy)-benzylidene]-1,3-dihydroindol-2-one]
4.96 | 5.12 | CC1(C)CCc2cc(C=C3C(=O)Nc4ccc(Br)cc43)ccc2O1 (racemic) [Example 34, 5-Bromo-3-(2,2-dimethylchroman-6-ylmethylene)-1,3-dihydroindol-2-one]
